This note sets out measurements from patent publication US4281121A, “1,3,4-Thiadiazole-2-carboxylic acid derivatives, process for making the same and fungicidal and nematocidal compositions containing same” (Schering Aktiengesellschaft, priority 1978, dated 1981).

The test system of one assay is Fusarium avenaceum. Put plainly: Threshold concentration test in case of Fusarium avenaceum (infested soil, garden peas). The settings on record: for number of sound peas: 20 grains per dish, 18 days at 20-24° C.; for root evaluation (1-4): 18 days. Format: in vivo. The gist of the method: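 Soil heavily infested with Fusarium avenaceum was mixed uniformly with a 20% powder formulation of active agent, then sown immediately with 20 garden pea seeds ('Wunder von Kelvedon') per dish. After 18 days in a greenhouse at 20° to 24° C., sound plants were counted and roots scored on a 1–4 scale.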

The test system of another assay is Tilletia caries. Put plainly: Treatment of oat seeds infested with Tilletia caries (spore germination). Format: in vivo.
A further assay relates to Piricularia oryzae. Format: in vivo. The settings on record: 5 days.
A further assay deals with Pythium ultimum. Put plainly: Threshold concentration test for use of the compounds against Pythium ultimum (infested soil, garden peas). The settings on record: for root evaluation (1-4): 3 weeks; for number of sound peas: 20 grains per dish, 3 weeks at 20-24° C. More on the design: key to root evaluation (1-4): 4: white roots without fungous necrosis; 3: white roots, minor fungous necrosis; 2: brown roots, already more pronounced fungous necrosis; 1: heavy fungous necrosis, roots rotted. Format: in vivo. Put shortly: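 Garden pea seeds, 20 per dish, went straight into Pythium ultimum-infested soil into which 20% pulverulent formulations had been uniformly blended. Sound plants counted and roots rated 1–4 after three weeks of hothouse growth at 20–24 °C.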

For assay [1], the system named is Helminthosporium gramineum. Put plainly: Seed treatment in open field tests for infestation by Helminthosporium gramineum (barley). The class given is in vivo. As to the method: Seed treatment in open field tests for infestation by Helminthosporium gramineum
The active agents were used in the form of pulverulent compositions. After about 8 months in case of winter barley and after about 3 months in case of summer barley the infested plants were counted and the activity was calculated by the formula [formula]

A further assay deals with Helminthosporium gram. The settings on record: about 5 weeks.
A further assay relates to Plasmopara viticola. Put plainly: Prophylactic leaf treatment of grapevines in the hothouse against Plasmopara viticola. Format: in vivo. On the procedure:
Effects of prophylactic leaf treatment of grapevines in the hothouse against Plasmopara viticola
Young grapevine plants having from 5 to 8 leaves were sprayed dripping wet with the concentrations of active agents stated in the table below. After drying of the spray deposit the leaves were sprayed with an aqueous suspension of sporangia of the fungus (about 20,000 per ml); the spraying was applied to the bottom side of the leaves. The plants were then immediately incubated in a hothouse at a temperature of 22° to 24° C. and at maximum water saturation in the atmosphere. Beginning with the second day the humidity of the air was reduced for 3 to 4 days to normal level (30 to 70% saturation) and was then maintained for another day on the level of full saturation. Subsequently, the percentage portion of the fungus infested surface of each leaf was noted and the average per treatment was calculated in order to determine the fungicidal activity. This was done on the basis of the following formula: [formula]
The active compounds were applied in the form of a 20% concentration spray powder.

A further assay deals with Venturia inaequalis. Briefly: Prophylactic leaf treatment of apples in open field test against Venturia inaequalis. The class given is in vivo. The settings on record: 3 weeks.
The mark [2] stands for this setting: concentration of active agent 0.1 (percentages).
[3] abbreviates: concentration of active agent 0.025 (unit not given).
Setting [4] is: concentration of active agent 0.005 (in gram).
The mark [5] stands for this setting: concentration of active agent 0.025 (in gram).
Where [6] appears, read: concentration of active agent 0.001 (unit not given).
The mark [7] stands for this setting: concentration of active agent 0.005 (unit not given).

Read-outs that look alike come from different tables or passages of the source.

Consider `CCC(C)S(=O)(=O)c1nnc(C#N)s1` (stereo not drawn) [5-sec.-butylsulfonyl-1,3,4-thiadiazole-2-carbonitrile], for which the “number of sound peas” value in the assay on Fusarium avenaceum (25 mg/l soil) came to 20; in the assay on Fusarium avenaceum (50 mg/l soil) it was 19; in the assay on Fusarium avenaceum (100 mg/l soil), 20. The “root evaluation (1-4)” value in the assay with Fusarium avenaceum (25 mg/l soil), in the assay with Fusarium avenaceum (50 mg/l soil) and in the assay on Fusarium avenaceum (100 mg/l soil) was 4 throughout. The “% activity” value in the assay on Tilletia caries (10 g active agent per 100 kg) was found to be 75%; with Tilletia caries (20 g active agent per 100 kg), 91%; in the assay on Tilletia caries (50 g active agent per 100 kg), 98%; in the assay with Piricularia oryzae (setting [2]), 99.5%.

Take `CCCS(=O)(=O)c1nnc(C(=O)NC(C)C)s1` [5-propylsulfonyl-1,3,4-thiadiazole-2-carboxylic acid-isopropylamide]: the “root evaluation (1-4)” value in the assay on Pythium ultimum (20 mg/l soil) was 1; in the assay with Pythium ultimum (40 mg/l soil), 4; in the assay on Pythium ultimum (80 mg/l soil), 4; in the assay on Fusarium avenaceum (25 mg/l soil), 2; in the assay on Fusarium avenaceum (50 mg/l soil), 3; with Fusarium avenaceum (100 mg/l soil), 4. Also, the “number of sound peas” value in the assay on Pythium ultimum (20 mg/l soil) amounted to 9; in the assay on Pythium ultimum (40 mg/l soil), 20; in the assay on Pythium ultimum (80 mg/l soil) it was 18; with Fusarium avenaceum (25 mg/l soil), 14; in the assay on Fusarium avenaceum (50 mg/l soil), 16; with Fusarium avenaceum (100 mg/l soil), 17. Moreover, the “% activity” value worked out at 98% with Tilletia caries (10 g active agent per 100 kg), 99.8% in the assay with Tilletia caries (20 g active agent per 100 kg), 100% in the assay on Tilletia caries (50 g active agent per 100 kg) and 90% with Piricularia oryzae (setting [2]).

Regarding `CN(C)C(=O)c1nnc(S(C)(=O)=O)s1` [5-methylsulfonyl-1,3,4-thiadiazole-2-carboxylic acid-dimethylamide], the “root evaluation (1-4)” value in the assay on Pythium ultimum (20 mg/l soil), in the assay on Pythium ultimum (40 mg/l soil) and with Pythium ultimum (80 mg/l soil) was 4 each time. For the same compound, the figures for the “number of sound peas” value in the assay with Pythium ultimum (20 mg/l soil), in the assay on Pythium ultimum (40 mg/l soil) and with Pythium ultimum (80 mg/l soil) were 18, 20 and 18, respectively. Moreover, the “% activity” value is 91% with Piricularia oryzae (concentration of active agent 0.02 (percentages)); 98% in the assay on Piricularia oryzae (setting [2]); 98% in assay [1] (winter barley, 50 g active agent/100 kg barley, about 8 months); 100% in assay [1] (winter barley, 100 g active agent/100 kg barley, about 8 months); 87% in the assay on Helminthosporium gram (20 g active agent per 100 kg); 98% in the assay with Helminthosporium gram (50 g active agent per 100 kg).

For the compound `CCCCNC(=O)c1nnc([S+](C)[O-])s1` (stereo not drawn) [5-methylsulfinyl-1,3,4-thiadiazole-2-carboxylic acid-butylamide], the figures for the “root evaluation (1-4)” value with Pythium ultimum (20 mg/l soil), in the assay on Pythium ultimum (40 mg/l soil) and in the assay with Pythium ultimum (80 mg/l soil) were 2, 4 and 4, respectively. Besides, the “number of sound peas” value stood at 12 in the assay with Pythium ultimum (20 mg/l soil), 15 in the assay on Pythium ultimum (40 mg/l soil) and 17 in the assay with Pythium ultimum (80 mg/l soil). Besides, the “% activity” value in the assay with Tilletia caries (10 g active agent per 100 kg) is reported as 99%; in the assay with Tilletia caries (20 g active agent per 100 kg), 99.8%; in the assay with Tilletia caries (50 g active agent per 100 kg), 100%; in assay [1] (summer barley, 50 g active agent/100 kg barley, about 3 months) it was 100%; in the assay on Plasmopara viticola (setting [3]) it was 93%; with Venturia inaequalis (setting [4]) it was 86%. Besides, the “% activity” value was 99% in the assay with Venturia inaequalis (setting [5]), 67% in the assay on Helminthosporium gram (10 g active agent per 100 kg), 97% in the assay with Helminthosporium gram (20 g active agent per 100 kg) and 100% with Helminthosporium gram (50 g active agent per 100 kg).

`CCCC[S+]([O-])c1nnc(C(N)=O)s1` (stereo not drawn) [5-butylsulfinyl-1,3,4-thiadiazole-2-carboxamide]: the “root evaluation (1-4)” value was found to be 1 in the assay with Pythium ultimum (20 mg/l soil), 4 with Pythium ultimum (40 mg/l soil) and 4 in the assay on Pythium ultimum (80 mg/l soil). Also, the “number of sound peas” value in the assay with Pythium ultimum (20 mg/l soil) is recorded as 10; with Pythium ultimum (40 mg/l soil), 15; in the assay with Pythium ultimum (80 mg/l soil) it was 19. For the same compound, the “% activity” value in the assay with Tilletia caries (20 g active agent per 100 kg) worked out at 95%; with Tilletia caries (50 g active agent per 100 kg), 100%; in the assay on Piricularia oryzae (setting [2]), 93%; with Plasmopara viticola (setting [6]), 75%; in the assay with Plasmopara viticola (setting [7]) it was 99.8%; with Plasmopara viticola (setting [3]) it was 100%.

With `CC(C)CS(=O)(=O)c1nnc(C#N)s1` [5-isobutylsulfonyl-1,3,4-thiadiazole-2-carbonitrile], the “number of sound peas” value in the assay on Fusarium avenaceum (25 mg/l soil) amounted to 19; in the assay on Fusarium avenaceum (50 mg/l soil) it was 20; in the assay with Fusarium avenaceum (100 mg/l soil) it was 19. The “root evaluation (1-4)” value in the assay on Fusarium avenaceum (25 mg/l soil), in the assay with Fusarium avenaceum (50 mg/l soil) and with Fusarium avenaceum (100 mg/l soil) was 4 each time. Further, the “% activity” value was determined as 93% in the assay on Tilletia caries (20 g active agent per 100 kg); 100% in the assay on Tilletia caries (50 g active agent per 100 kg); 100% in the assay on Piricularia oryzae (setting [2]); 79% with Plasmopara viticola (setting [6]); 87% in the assay on Plasmopara viticola (setting [7]); 99% in the assay with Plasmopara viticola (setting [3]).

Regarding `CCC[S+]([O-])c1nnc(C(=O)NCC)s1` (stereo not drawn) [5-propylsulfinyl-1,3,4-thiadiazole-2-carboxylic acid-ethylamide], the “% activity” value in the assay on Piricularia oryzae (setting [2]) was 90%; in the assay on Helminthosporium gram (50 g active agent per 100 kg), 94%.

For the compound `CCCNC(=O)c1nnc([S+]([O-])CCC)s1` (stereo not drawn) [5-propylsulfinyl-1,3,4-thiadiazole-2-carboxylic acid-propylamide], the “% activity” value in the assay with Tilletia caries (20 g active agent per 100 kg) is 99.3%; in the assay with Tilletia caries (50 g active agent per 100 kg) it was 100%; in the assay with Piricularia oryzae (setting [2]), 93%; with Helminthosporium gram (50 g active agent per 100 kg), 94%.

For `CCCS(=O)(=O)c1nnc(C(=O)N(C)C)s1` [5-propylsulfonyl-1,3,4-thiadiazole-2-carboxylic acid-dimethylamide], the entries for the “root evaluation (1-4)” value with Pythium ultimum (20 mg/l soil), with Pythium ultimum (40 mg/l soil) and in the assay on Pythium ultimum (80 mg/l soil) were 2, 4 and 4, respectively. Also, the “number of sound peas” value with Pythium ultimum (20 mg/l soil) came to 17; in the assay with Pythium ultimum (40 mg/l soil), 20; in the assay on Pythium ultimum (80 mg/l soil) it was 19. Besides, the “% activity” value is given as 100% in the assay on Tilletia caries (20 g active agent per 100 kg); 100% with Tilletia caries (50 g active agent per 100 kg); 93% in the assay on Piricularia oryzae (setting [2]); 75% in the assay on Plasmopara viticola (setting [7]); 90% in the assay on Plasmopara viticola (setting [3]); 93% with Helminthosporium gram (50 g active agent per 100 kg).

As for `CC(C)S(=O)(=O)c1nnc(C(=O)NCC2CCCCC2)s1` [5-isopropylsulfonyl-1,3,4-thiadiazole-2-carboxylic acid-cyclohexylmethylamide], the “% activity” value is 92% with Tilletia caries (20 g active agent per 100 kg); 97% in the assay on Tilletia caries (50 g active agent per 100 kg); 98% in the assay on Piricularia oryzae (setting [2]); 92% with Plasmopara viticola (setting [7]); 97% in the assay with Plasmopara viticola (setting [3]).

Consider `CCCS(=O)(=O)c1nnc(C#N)s1` [5-propylsulfonyl-1,3,4-thiadiazole-2-carbonitrile], for which the “number of sound peas” value worked out at 18 in the assay with Fusarium avenaceum (25 mg/l soil), 20 in the assay with Fusarium avenaceum (50 mg/l soil) and 20 with Fusarium avenaceum (100 mg/l soil). The “root evaluation (1-4)” value in the assay with Fusarium avenaceum (25 mg/l soil), in the assay on Fusarium avenaceum (50 mg/l soil) and in the assay on Fusarium avenaceum (100 mg/l soil) was 4 throughout. The “% activity” value in the assay with Tilletia caries (10 g active agent per 100 kg) is listed as 99%; in the assay with Tilletia caries (20 g active agent per 100 kg), 100%; in the assay on Tilletia caries (50 g active agent per 100 kg) it was 100%; with Piricularia oryzae (setting [2]) it was 99.5%.

In the case of `N#CC1=C(C#N)C(=O)c2cc3ccccc3cc2C1=O` [2,3-dinitrilo-1,4-anthraquinone, reference compound], the entries for the “% activity” value with Venturia inaequalis (setting [4]) and in the assay with Venturia inaequalis (setting [5]) were 86% and 94%, respectively.

With `C=CCNC(=O)c1nnc(S(C)(=O)=O)s1` [5-methylsulfonyl-1,3,4-thiadiazole-2-carboxylic acid-allylamide], the “root evaluation (1-4)” value in the assay on Pythium ultimum (20 mg/l soil), in the assay on Pythium ultimum (40 mg/l soil) and with Pythium ultimum (80 mg/l soil) was 4 throughout. Also, the “number of sound peas” value in the assay on Pythium ultimum (20 mg/l soil) came out at 19; in the assay on Pythium ultimum (40 mg/l soil), 18; in the assay on Pythium ultimum (80 mg/l soil), 18. For the same compound, the “% activity” value in the assay with Tilletia caries (20 g active agent per 100 kg) worked out at 100%; in the assay on Tilletia caries (50 g active agent per 100 kg) it was 100%; with Piricularia oryzae (setting [2]), 94%; with Helminthosporium gram (50 g active agent per 100 kg) it was 100%.
